# Assay results published in patent US4016176A, “Esters of 4-hydroxy-2,9-dioxatricyclo[4.3.1.0^3,7 ] decanes and processes for their production” (Kali-Chemie Pharma GmbH, priority 1973, dated 1977).
# How the values were obtained:
# mouse [1] = test: sedative effect, comparison of esters with 4-hydroxy compounds; assay type: in vivo; conditions: for sedative effect relative to the corresponding hydroxy compound (in words): compared with corresponding hydroxy compounds, Compound No. 1561; for sedative effect or ataxia relative to the 4-hydroxy compound (in words): 4β-esters compared with Compound No. 1246
# From the text: The effectiveness of the 2,9-dioxatricyclo[4.3.1.0^3,7 ]decanes of the present invention as narcotics is obviously sterospecifically related to the 4αconfiguration. Particularly surprising is the narcotic effect of the esters as compared to the 4-hydroxy compounds. Whereas nearly 300 or even 800 milligrams per kilogram of the 4-hydroxy compounds are required to induce narcosis, the required doses of the carbamates is only at most 100 milligrams per kilogram and their toxicity is in general very low.
# mouse [2] = test: prolongation of narcosis produced by hexobarbital in mice; assay type: in vivo; conditions: for E - dose which prolongs narcosis produced by hexobarbital in a mouse by a factor of 4: factor of 4, Table 3; for prolongation of narcosis produced by hexobarbital (in words): comparison of epimers
# From the text: (§1) In the Table 3 which follows are listed results of tests pertaining to the effectiveness of various compounds that are disclosed herein.
# mice [3] = test: acute toxicity (LD50) in mice; assay type: in vivo, mouse; conditions: for B - lethal dose (LD50) to mice, intraperitoneally: intraperitoneal; for B - lethal dose (LD50) to mice, intraperitoneally / A - lethal dose (LD50) to mice, per os: Table 3; for relative toxicity compared with the 4-hydroxy compound (in words): 4β-esters compared with Compound No. 1246
# From the text: (§2) In the Table 3 which follows are listed results of tests pertaining to the effectiveness of various compounds that are disclosed herein. The results are included in the several columns under letters whose significance is as follows:
# (§3) A - lethal dose (LD50) to mice in milligrams per kilogram of body weight of the mouse when administered per os.
# (§4) B - lethal dose (LD50) to mice in milligrams per kilogram of body weight of the mouse when administered intraperitoneally.
# (§5) A. lethal dose (LD50) to mice in milligrams per kilogram body weight of the mouse when administered per os.
# (§6) B. lethal dose (LD50) to mice in milligrams per kilogram body weight of the mouse administered intraperitoneally.
# (§7) The values specified in Tables 4 and 5 hereinafter refer to milligrams per kilogram of body weight of the mouse.
# (§8) Tests performed in accordance with the procedure described by Campbell and Richter in Acta Pharmacol. et Toxicol., vol. […] This is indicated by the results that are reported in Table 5 in which the headings A and F have the same significance as hereinbefore while the values in the column heading L pertain to the dose in milligrams per kilogram of body weight that was required to produce a lowering of the rectal temperature, which are values indicative of the depressant effect of a compound upon the central nervous system.
# mice [4] = test: narcosis (lateral position) in mice; assay type: in vivo, mouse; conditions: mouse; for ED50: ip, 0.05 h, read-out: D - narcosis (lateral position): dose (ED50) which produces narcosis for 3 minutes in 50% of the mice, intraperitoneal, narcosis for 3 minutes, Table 3; for narcosis (in words): comparison of epimers
# From the text: as §1
# mouse [5] = test: ataxia in mice; assay type: in vivo; conditions: mouse; for C - ataxia: dose required to produce ataxia in a mouse: Table 3
# From the text: as §2
# C - ataxia: Dose in milligrams per kilogram of body weight required to produce ataxia in a mouse.
# dogs = test: narcosis in dogs, intravenous; assay type: in vivo, dog; conditions: Canis lupus familiaris, narcosis for 1 hour, read-out: dose required to produce a narcosis that persisted for 1 hour
# Procedure: In dogs a dose of 17.5 milligrams of the compound per kilogram of body weight administered intravenously was required to produce a narcosis that persisted for 1 hour.
# [6] = acute toxicity in cats, intravenous; conditions: cat, in vivo, read-out: lethal dose (LD50) for cats
# Procedure: (§9) The toxicity and narcotic effectiveness of this compound were determined in tests with cats and dogs. […] The intravenous administration of a dose equivalent to 5 milligrams per kilogram of body weight to cats produced a narcosis that persisted for 10 minutes, whereas doses of 10 and 15 milligrams per kilogram produced narcoses that persisted for 25 and 60 minutes, respectively.
# cats = test: narcosis in cats, intravenous; assay type: in vivo, cat
# Procedure: as §9
# [7] = acute toxicity (LD50) in mice; assay type: in vivo, mouse; conditions: mouse, in vivo, mouse
# From the text: as §2, §3, §4, §5, §6, §7, §8
# mouse [8] = test: lowering of the rectal temperature in mice; assay type: in vivo; conditions: mouse; Table 5; read-out: L dose required to produce a lowering of the rectal temperature
# From the text: as §7, §8
# white mice [9] = test: ptosis test (Campbell and Richter screening); assay type: in vivo, mouse; conditions: for dose producing ptosis relative to the 4-hydroxy compound (in words): compared with Compound No. 1561; for F ptosis test: mouse, Table 5
# From the text: The sedative and hypnotic effectiveness of the compounds of the invention were also ascertained by screening tests with white mice described by Campbell and Richter in Acta Pharmacol. et Toxicol. 25 (1967) page 345. In Table 4 the results of various specific screening tests are listed. These tests were as follows:
# as §7, §8
# [10] = acute toxicity of Example 17 compound, p.o.; conditions: mouse, in vivo, po
# white mice [11] = test: spasmolytic effect
# [12] = narcosis, Example 17 compound; conditions: in vivo
# [13] = po, per os, Table 5, read-out: A lethal dose (LD50) to mice, per os
# [14] = po, per os, Table 3, read-out: A - lethal dose (LD50) to mice, per os
Structure (SMILES),sedative effect relative to the corresponding hydroxy compound (in words) (mouse [1]),E - dose which prolongs narcosis produced by hexobarbital in a mouse by a factor of 4 (mouse [2]),"B - lethal dose (LD50) to mice, intraperitoneally (mice [3]; mouse)","A - lethal dose (LD50) to mice, per os (mice [3]; mouse)",C - ataxia: dose required to produce ataxia in a mouse (mouse [5]),sedative effect or ataxia relative to the 4-hydroxy compound (in words) (mouse [1]),relative toxicity compared with the 4-hydroxy compound (in words) (mice [3]),other results
"CCNC(=O)OC1CC2C(C)C3OC(OC)C2C1(C)O3 (stereo not drawn) [Compound No. 2026, 4α-(N-Ethylcarbamyloxy)-8-methoxy-3,10-dimethyl-2,9-dioxatricyclo[4.3.1.0^3,7]decane]",greater sedative effect than the corresponding hydroxy compounds,31.6 milligrams per kilogram of bod,297 milligrams per kilogram of bod,518 milligrams per kilogram of bod,68.1 milligrams per kilogram of bod,–,–,ED50 (mice [4]): 100 mg/kg
"COC1OC2OC3(C)C(OC(=O)NC(C)C)CC(C2C)C13 (stereo not drawn) [Compound No. 2057, 4β-(N-Isopropylcarbamyloxy)-3,10-dimethyl-8-methoxy-2,9-dioxatricyclo[4.3.1.0^3,7]decane]",–,–,1000 milligrams per kilogram of bod,> 1470 milligrams per kilogram of bod,147 milligrams per kilogram of bod,distinct increase in the sedative effect or ataxia,reduction in the relative toxicity,prolongation of narcosis produced by hexobarbital (in words) (mouse [2]): produces neither a narcosis nor a prolongation of narcosis produced by hexobarbital; narcosis (in words) (mice [4]): produces neither a narcosis nor a prolongation of narcosis produced by hexobarbital; dose required for producing ataxia (mouse [5]): 147 milligrams per kilogram of body weight
"C=C1C2OC(OC)C3C1CC(OC(=O)NCC)C3(C)O2 (stereo not drawn) [Compound No. 2076, 4α-(N-Ethylcarbamyloxy)-8-methoxy-3-methyl-10-methylene-2,9-dioxatricyclo[4.3.1.0^3,7]decane]",–,–,527 milligrams per kilogram of bod,1025 milligrams per kilogram of bod,50 milligrams per kilogram of bod,–,–,"prolongation of narcosis produced by hexobarbital (in words) (mouse [2]): does not prolong narcosis produced by hexobarbital; toxicity of the epimers (in words) (mice [3]; mouse, 2067 versus 2076): substantially the same toxicity; ED50 (mice [4]): < 100 mg/kg; narcosis (in words) (mice [4]): produces narcosis; minimal effective dose (dogs): 17.5 mg/kg; LD50 [6]: 226 mg/kg; doses effective in producing ataxia (in words) (mouse [5]; 2067 versus 2076): identical doses are effective in producing ataxia; duration of narcosis (cats; 5 mg/kg): 10 min; duration of narcosis (cats; 10 mg/kg): 25 min; duration of narcosis (cats; 15 mg/kg): 60 min"
"COC1OC2OC3(C)C(OC(C)=O)CC(C2C)C13 (stereo not drawn) [Compound No. 2080, 4α-Acetoxy-8-methoxy-3,10-dimethyl-2,9-dioxatricyclo[4.3.1.0^3,7]decane]",greater sedative effect than the corresponding hydroxy compounds,–,> 1000 milligrams per kilogram of bod,> 1470 milligrams per kilogram of bod,50 milligrams per kilogram of bod,–,–,"LD50 [7, 13]: 1470 mg/kg; minimal effective dose (mouse [8]): 400 mg/kg; dose producing ptosis relative to the 4-hydroxy compound (in words) (white mice [9]): one-fourth or one-half of the dose required of the 4-hydroxy-compound; F ptosis test (white mice [9]): 100 milligrams per kilogram of bod"
"COC1OC2OC3(C)C(OC(=O)Nc4ccccc4)CC(C2C)C13 (stereo not drawn) [Example 17, 4β-(N-Phenylcarbamyloxy)-8-methoxy-3,10-dimethyl-2,9-dioxatricyclo[4.3.1.0^3,7]decane]",–,–,–,–,–,–,–,LD50 [10]: 1500 mg/kg; spasmolytic ED50 relative to the ED100 of atropine (white mice [11]; % of the ED100 of atropine): 0.2%; spasmolytic ED50 relative to the ED100 of papaverine (white mice [11]; % of the ED100 of papaverine): 0.1%; narcosis (in words) [12]: did not produce narcosis
CCNC(=O)OC1CC2C(C)C3OC(OC)C2C1(C)O3 (stereo not shown) [compound 1767],–,–,890 milligrams per kilogram of bod,> 1500 milligrams per kilogram of bod,400 milligrams per kilogram of bod,distinct increase in the sedative effect or ataxia,reduction in the relative toxicity,–
CCC(=O)OC1CC2C(C)C3OC(OC)C2C1(C)O3 (stereo not shown) [compound 2044],–,–,436 milligrams per kilogram of bod,–,147 milligrams per kilogram of bod,distinct increase in the sedative effect or ataxia,reduction in the relative toxicity,"LD50 [7, 14]: 1470 mg/kg"
COC1OC2OC3(C)C(OC(C)=O)CC(C2C)C13 (stereo not shown) [compound 2045],–,316 milligrams per kilogram of bod,–,–,200 milligrams per kilogram of bod,distinct increase in the sedative effect or ataxia,reduction in the relative toxicity,"LD50 ([7]; ip, intraperitoneal, Table 3, read-out: B - lethal dose (LD50) to mice, intraperitoneally): 1000 mg/kg; LD50 [7, 14]: 1470 mg/kg"
CCC(=O)OC1CC2C(C)C3OC(OC)C2C1(C)O3 (stereo not shown) [compound 2081],greater sedative effect than the corresponding hydroxy compounds,316 milligrams per kilogram of bod,1379 milligrams per kilogram of bod,> 1470 milligrams per kilogram of bod,50 milligrams per kilogram of bod,–,–,"LD50 [7, 13]: > 1470 mg/kg; minimal effective dose (mouse [8]): 100 mg/kg; dose producing ptosis relative to the 4-hydroxy compound (in words) (white mice [9]): one-fourth or one-half of the dose required of the 4-hydroxy-compound; F ptosis test (white mice [9]): 200 milligrams per kilogram of bod"
